Reference: patent US20180369264A1, “COMBINATION OF A CARDIAC STEROID AND AN AKT INHIBITOR FOR THE TREATMENT OF CARDIOVASCULAR DISEASES AND DISORDERS” (YISSUM RESEARCH DEVELOPMENT COMPANY OF THE HEBREW …, priority 2015, published 2018)

Assays:
[1] = test system: LAD-ligated rats; test: Heart contractility (echocardiography: SF, HR) in LAD-ligated rats; assay type: in vivo, rat; details: for effect on heart rate: 24 hours, 3 and 6 days post MI; for SF improvement relative to 24 hours post MI: ouabain 0.8 mg/kg/day, MK-2206 12 mg/kg/day, 3, 6 and 10 days post MI
Experimental: Male Wister rats (150-175 g body weight) were used. Left anterior descending artery (LAD)-ligation was performed in all animals. The rats were divided to four groups, each treated with subcutaneous injection with saline (0.5 ml/kg/day), ouabain (0.8-8 mg/kg/day), MK-2206 (12 mg/Kg/day) or a combination of MK-2206 and ouabain. All injected solutions contained 9% DMSO. Heart contractility in-vivo was monitored using echocardiography. At the end of the treatment period, animals were sacrificed and heart and blood samples were harvested for analysis. Blood samples were also collected (from the eye) at baseline and 24 hours post myocardial infarction (MI).
Rats were anesthetized with 10% ketamine, 2% xylazine (0.1 ml/kg) and ventilated with a small animal respirator (Harvard). The heart was exposed via left sternotomy, and the LAD-ligation was induced by placing a 6-0 silk suture around the left anterior descending coronary artery near the atrial auricle. The animals were allowed to recover and treated with 0.5 mg/100 g Tramadol Hydrochloride by subcutaneous injection for post-operative analgesia.
Echocardiograms were performed on rats anesthetized with 2% isoflurane at baseline, at 24 hours, as well as at 3, 6 and 10 days post LAD-ligation, using a VEVO 770 equipped with a 30 MHz linear transthoracic transducer (VisualSonics). Measurements were performed in triplicate using the leading-edge convention for myocardial borders as defined by the […]. Left ventricular, end-diastolic and end-systolic diameters (LVEDD and LVESD), diastolic and systolic interventricular septal diameters (IVSD and IVSS), left ventricular diastolic area (LVEDA), left ventricular systolic area (LVESA), and heart rate (HR) were measured. Shortening fraction (SF) was calculated by the equation: SF (%)=(LVEDD−LVESD)/LVEDD×100. Heart rate was measure by peak intervals of the echocardiography measurements. All measurements were performed by an individual who was blind to the entire experimental protocol and animal treatments.

[2] = test system: primary adult zebrafish cardiomyocytes; test: Primary adult zebrafish cardiomyocyte contractility; assay type: cell-based; details: for Amplitude / Contraction Rate (−dv/dt) / Relaxation Rate (+dv/dt): wt, 0.1 nM Oua, 0.5 Hz
Experimental: Adult (4 to 12-month-old) ventricular myocytes were obtained by enzymatic dissociation (with collagenase II and IV, at 5 mg/ml, each). The zebrafish were stunned by a blow to the head and the brain was pithed. The heart was quickly removed and placed in a small Petri dish containing 10 ml isolation solution: 100 mM NaCl, 10 mM KCl, 1.2 mM KH2PO4, 4 mM MgSO4, 50 mM taurine, 20 mM glucose, and 10 mM Hepes, pH 6.9. The ventricle was cut free from the bulbus and atrium under a binocular. Ventricles from 3 fish were incubated for 45 minutes at 32° C. in a solution containing perfusion buffer (150 mM NaCl, 5.4 mM KCl, 1.5 mM MgSO4, 0.4 mM NaH2PO4, 2 mM CaCl2, 10 mM glucose, and 10 mM Hepes, pH 7.7). Collagenases II and IV (Gibco, NY, USA, 5 mg/ml each) and additional CaCl2 (2.012 mM final concentration) were added. Following Eppendorf centrifugation (1 minute, 250×g at room temperature) the precipitated cells were suspended in 1 ml perfusion buffer for 30 minutes at room temperature before use.
Cells were transferred to a chamber with a quartz base and examined using an inverted epifluorescence microscope (Nikon Diaphot 200, Japan). The myocytes were field-stimulated (0.5 Hz, 70 V, square waves) and contractions were measured using a video motion edge detector (Crescent Electronics, Sandy, Utah, USA) at the rate of 5 Hz. Cardiomyocyte performance was calculated as the percentage of resting cell length. The slopes of contraction and relaxation (+dL/dt and −dL/dt) were calculated from the linear portions of the changes in contractility. 9 cells per each group were measured. Each of the experiments was repeated at least 3 times with identical results.

[3] = test system: Ca^2+ transients in acc mutant zebrafish isolated adult heart; test: Ca^2+ transients in acc mutant zebrafish isolated adult heart; details: for Amplitude (Maximal deflection from baseline) / Area (Area under the transient relative to baseline) / Decay slope (−Δ Fluorescence in the linear phase/sec) / Rate / Rise slope (+Δ Fluorescence in the linear phase/sec): Acc mutant, Ouabain 200 μM, MK-2206 1 nM
Experimental: Spontaneous Ca^2+ transients were measured in isolated hearts from adult zebrafish. The zebrafish were stunned by a blow to the head and the hearts were removed quickly and placed in Dulbecco's Modified Eagle's Medium (DMEM) containing 10% Fetal Bovine Serum (FBS) at room temperature. A total 3-5 hearts were placed in a small Petri dish containing 100 μl Krebs-Ringer's solution (119 mM NaCl, 2.5 mM KCl, 1 mM NaH2PO4, 2.5 mM CaCl2, 1.3 mM MgCl2, 20 mM HEPES and 11 mM D-glucose) with 0.01 mM Fura-2 AM (Biotium, Inc., CA, USA) in DMEM-FBS. Following incubation for 10 min (37° C., 5% CO2), 150 μl of Krebs-Ringer's solution were added to the Petri dish which was incubated for an additional 30 minutes. The dye was removed from the solution by two incubations (10 minutes each, room temperature) in DMEM-FBS solution. Intracellular Ca^2+ transients were measured in stabilizing medium containing 1% low-melt agarose in Krebs-Ringer's solution. The hearts were kept for 30 minutes in the presence of MK-2206 (or saline) and then underwent excitation/emission cycles for 2 minutes at 340 and 380 nm with 510 nm emission using a PTI fluorimetric system (Photon Technology International, Madison, USA). Ouabain was then added and the excitation/emission cycles were monitored for 8 minutes. The Ca^2+ levels are presented as the ratio of 340/380 nm fluorescence emission.

[4] = pre-incubation 1 nM MK-2206, 0.1 nM ouabain
[5] = Akt inhibitor experiment, 1 nM MK, 20 minutes
[6] = ERK inhibitor experiment, 10 nM PD98059, 20 minutes

SMILES	effect on heart rate [1]	SF improvement relative to 24 hours post MI [1]	Amplitude [2, 5]	Contraction Rate (−dv/dt) [2, 5]	Relaxation Rate (+dv/dt) [2, 5]	Amplitude (Maximal deflection from baseline) [3]	Area (Area under the transient relative to baseline) [3]	Decay slope (−Δ Fluorescence in the linear phase/sec) [3]	Rate [3]	Rise slope (+Δ Fluorescence in the linear phase/sec) [3]	also measured
NC1(c2ccc(-c3nc4ccn5c(=O)[nH]nc5c4cc3-c3ccccc3)cc2)CCC1 [MK-2206]	did not affect significantly heart rate	did not result in SF improvement	0.19 ± 0.03	0.98 ± 0.19	0.87 ± 0.20	1.85 ± 0.05	2.79 ± 0.23	1.72 ± 0.22	25 ± 3 wave/min	0.51 ± 0.04	contractility parameters, inhibitor by itself ([2]; 1 nM MK-2206): did not affect any of the contractility parameters; enhancement of ouabain-induced augmentation: increase in amplitude [2, 4]: 113%; enhancement of ouabain-induced augmentation: increase in contraction rise time [2, 4]: 183%; enhancement of ouabain-induced augmentation: increase in relaxation rise time [2, 4]: 169%
C[C@@H]1O[C@@H](O[C@H]2C[C@@H](O)[C@]3(CO)[C@H]4[C@H](O)C[C@]5(C)[C@@H](C6=CC(=O)OC6)CC[C@]5(O)[C@@H]4CC[C@]3(O)C2)[C@H](O)[C@H](O)[C@H]1O [ouabain, 3-(alpha-L-Rhamnopyranosyloxy)-1beta,5beta,11alpha,14,19-pentahydroxy-5beta-card-20(22)-enolide]	did not affect significantly heart rate	did not result in SF improvement	0.38 ± 0.05	1.84 ± 0.28	1.64 ± 0.23	1.67 ± 0.15	2.54 ± 0.56	1.92 ± 0.46	35 ± 8.4 wave/min	0.47 ± 0.1	effect on shortening fraction (SF) following LAD-ligation ([1]; 0.8 mg/kg/day, by itself): did not increase SF; effect on shortening fraction (SF) following LAD-ligation ([1]; 8 mg/kg/day): significantly increased the SF of the heart starting at the 3rd day of treatment; increase in contractility ([2]; 0.1 nM ouabain): three- to fourfold; Amplitude [2, 6]: 0.53 ± 0.1; Contraction Rate (−dv/dt) [2, 6]: 3.65 ± 0.38; Relaxation Rate (+dv/dt) [2, 6]: 2.92 ± 0.37; changes in Ca^2+ transients parameters ([3]; acc, 200 μM ouabain): did not result in any changes in the Ca^2+ transients parameters; changes in Ca^2+ transient parameters in the presence of Akt inhibitor ([3]; acc, 200 μM ouabain, Akt inhibitor): did not cause any changes in Ca^2+ transient parameters
